In ChEMBL document CHEMBL3870314, “Design, synthesis, anticancer, antimicrobial activities and molecular docking studies of theophylline containing acetylenes and theophylline containing 1,2,3-triazoles with variant nucleoside derivatives” (Eur J Med Chem, 2016):
In brackets after ≈: the same amount, converted by molar mass.

Tested on: not listed separately
Assay: Cytotoxicity against human A375 cells after 48 hrs by MTT assay
Type: functional, cell-based
Details: A-375, 48 h

SMILES	IC50
Cn1c(=O)c2c(ncn2CC(=O)NCc2cn(CC3OC(n4ccc(=O)[nH]c4=O)C4OC(C)(C)OC34)nn2)n(C)c1=O (stereo not drawn)	58.2 µM
C#CCCCOC(=O)Cn1cnc2c1c(=O)n(C)c(=O)n2C	158 µM
Cn1c(=O)c2c(ncn2CC(=O)OCc2cn(CC3OC(n4ccc(=O)[nH]c4=O)C4OC(C)(C)OC34)nn2)n(C)c1=O (stereo not drawn)	56.2 µM
Cn1c(=O)c2c(ncn2Cc2cn(CC3OC(n4ccc(=O)[nH]c4=O)C4OC(C)(C)OC34)nn2)n(C)c1=O (stereo not drawn)	54.2 µM
C#CCn1cnc2c1c(=O)n(C)c(=O)n2C	153 µM
CCn1c(=O)ccn(C2OC(Cn3cc(COC(=O)C(C)n4cnc5c4c(=O)n(C)c(=O)n5C)nn3)C(O)C2O)c1=O (stereo not drawn)	68.4 µM
CCn1c(=O)ccn(C2OC(Cn3cc(COC(=O)C(C)NC(=O)C(C)n4cnc5c4c(=O)n(C)c(=O)n5C)nn3)C(O)C2O)c1=O (stereo not drawn)	52.3 µM
Cn1c(=O)c2c(ncn2CCCc2cn(CC3OC(n4ccc(=O)[nH]c4=O)C4OC(C)(C)OC34)nn2)n(C)c1=O (stereo not drawn)	9.4 µM
C#CCOC(=O)Cn1cnc2c1c(=O)n(C)c(=O)n2C	33.6 µM
C#CCCOC(=O)Cn1cnc2c1c(=O)n(C)c(=O)n2C	159 µM

Tested on: not listed separately
Assay: Cytotoxicity against human A549 cells after 48 hrs by MTT assay
Type: functional, cell-based
Details: A549, 48 h

SMILES	IC50
Cn1c(=O)c2c(ncn2CC(=O)NCc2cn(CC3OC(n4ccc(=O)[nH]c4=O)C4OC(C)(C)OC34)nn2)n(C)c1=O (stereo not drawn)	53.9 µM
C#CCCCOC(=O)Cn1cnc2c1c(=O)n(C)c(=O)n2C	56.8 µM
Cn1c(=O)c2c(ncn2CC(=O)OCc2cn(CC3OC(n4ccc(=O)[nH]c4=O)C4OC(C)(C)OC34)nn2)n(C)c1=O (stereo not drawn)	3.59 µM
Cn1c(=O)c2c(ncn2Cc2cn(CC3OC(n4ccc(=O)[nH]c4=O)C4OC(C)(C)OC34)nn2)n(C)c1=O (stereo not drawn)	8.59 µM
C#CCn1cnc2c1c(=O)n(C)c(=O)n2C	152 µM
CCn1c(=O)ccn(C2OC(Cn3cc(COC(=O)C(C)n4cnc5c4c(=O)n(C)c(=O)n5C)nn3)C(O)C2O)c1=O (stereo not drawn)	2.89 µM
CCn1c(=O)ccn(C2OC(Cn3cc(COC(=O)C(C)NC(=O)C(C)n4cnc5c4c(=O)n(C)c(=O)n5C)nn3)C(O)C2O)c1=O (stereo not drawn)	1.56 µM
Cn1c(=O)c2c(ncn2CCCc2cn(CC3OC(n4ccc(=O)[nH]c4=O)C4OC(C)(C)OC34)nn2)n(C)c1=O (stereo not drawn)	15.4 µM
C#CCOC(=O)Cn1cnc2c1c(=O)n(C)c(=O)n2C	156 µM
C#CCCOC(=O)Cn1cnc2c1c(=O)n(C)c(=O)n2C	104 µM

Tested on: Pseudomonas aeruginosa
Assay: Antimicrobial activity against Pseudomonas aeruginosa ATCC 10145 incubated overnight by two-fold serial dilution method
Type: functional
Details: not given

SMILES	MIC
Cn1c(=O)c2c(ncn2CC(=O)NCc2cn(CC3OC(n4ccc(=O)[nH]c4=O)C4OC(C)(C)OC34)nn2)n(C)c1=O (stereo not drawn)	0.125 µg/mL (≈ 0.214 µM)
C#CCCCOC(=O)Cn1cnc2c1c(=O)n(C)c(=O)n2C	0.0625 µg/mL (≈ 0.205 µM)
Cn1c(=O)c2c(ncn2CC(=O)OCc2cn(CC3OC(n4ccc(=O)[nH]c4=O)C4OC(C)(C)OC34)nn2)n(C)c1=O (stereo not drawn)	0.0625 µg/mL (≈ 0.107 µM)
Cn1c(=O)c2c(ncn2Cc2cn(CC3OC(n4ccc(=O)[nH]c4=O)C4OC(C)(C)OC34)nn2)n(C)c1=O (stereo not drawn)	0.0312 µg/mL (≈ 0.0592 µM)
O=C(O)c1cn(C2CC2)c2cc(N3CCNCC3)c(F)cc2c1=O [CIPROFLOXACIN]	0.0625 µg/mL (≈ 0.189 µM)
C#CCn1cnc2c1c(=O)n(C)c(=O)n2C	0.125 µg/mL (≈ 0.573 µM)
CCn1c(=O)ccn(C2OC(Cn3cc(COC(=O)C(C)n4cnc5c4c(=O)n(C)c(=O)n5C)nn3)C(O)C2O)c1=O (stereo not drawn)	0.0312 µg/mL (≈ 0.0532 µM)
CCn1c(=O)ccn(C2OC(Cn3cc(COC(=O)C(C)NC(=O)C(C)n4cnc5c4c(=O)n(C)c(=O)n5C)nn3)C(O)C2O)c1=O (stereo not drawn)	0.0625 µg/mL (≈ 0.0949 µM)
Cn1c(=O)c2c(ncn2CCCc2cn(CC3OC(n4ccc(=O)[nH]c4=O)C4OC(C)(C)OC34)nn2)n(C)c1=O (stereo not drawn)	0.0625 µg/mL (≈ 0.113 µM)
C#CCOC(=O)Cn1cnc2c1c(=O)n(C)c(=O)n2C	0.125 µg/mL (≈ 0.452 µM)
C#CCCOC(=O)Cn1cnc2c1c(=O)n(C)c(=O)n2C	0.0625 µg/mL (≈ 0.215 µM)

Tested on: Staphylococcus aureus
Assay: Antimicrobial activity against Staphylococcus aureus ATCC 25923 incubated overnight by two-fold serial dilution method
Type: functional
Details: not given

SMILES	MIC
Cn1c(=O)c2c(ncn2CC(=O)NCc2cn(CC3OC(n4ccc(=O)[nH]c4=O)C4OC(C)(C)OC34)nn2)n(C)c1=O (stereo not drawn)	0.0312 µg/mL (≈ 0.0535 µM)
C#CCCCOC(=O)Cn1cnc2c1c(=O)n(C)c(=O)n2C	0.5 µg/mL (≈ 1.64 µM)
Cn1c(=O)c2c(ncn2CC(=O)OCc2cn(CC3OC(n4ccc(=O)[nH]c4=O)C4OC(C)(C)OC34)nn2)n(C)c1=O (stereo not drawn)	0.0312 µg/mL (≈ 0.0534 µM)
Cn1c(=O)c2c(ncn2Cc2cn(CC3OC(n4ccc(=O)[nH]c4=O)C4OC(C)(C)OC34)nn2)n(C)c1=O (stereo not drawn)	0.5 µg/mL (≈ 0.948 µM)
O=C(O)c1cn(C2CC2)c2cc(N3CCNCC3)c(F)cc2c1=O [CIPROFLOXACIN]	0.0312 µg/mL (≈ 0.0943 µM)
C#CCn1cnc2c1c(=O)n(C)c(=O)n2C	0.0625 µg/mL (≈ 0.286 µM)
CCn1c(=O)ccn(C2OC(Cn3cc(COC(=O)C(C)n4cnc5c4c(=O)n(C)c(=O)n5C)nn3)C(O)C2O)c1=O (stereo not drawn)	0.0156 µg/mL (≈ 0.0266 µM)
CCn1c(=O)ccn(C2OC(Cn3cc(COC(=O)C(C)NC(=O)C(C)n4cnc5c4c(=O)n(C)c(=O)n5C)nn3)C(O)C2O)c1=O (stereo not drawn)	0.0312 µg/mL (≈ 0.0474 µM)
Cn1c(=O)c2c(ncn2CCCc2cn(CC3OC(n4ccc(=O)[nH]c4=O)C4OC(C)(C)OC34)nn2)n(C)c1=O (stereo not drawn)	0.0625 µg/mL (≈ 0.113 µM)
C#CCOC(=O)Cn1cnc2c1c(=O)n(C)c(=O)n2C	0.0312 µg/mL (≈ 0.113 µM)
C#CCCOC(=O)Cn1cnc2c1c(=O)n(C)c(=O)n2C	0.0625 µg/mL (≈ 0.215 µM)

Tested on: not listed separately
Assay: Cytotoxicity against human MCF7 cells after 48 hrs by MTT assay
Type: functional, cell-based
Details: MCF7, 48 h

SMILES	IC50
Cn1c(=O)c2c(ncn2CC(=O)NCc2cn(CC3OC(n4ccc(=O)[nH]c4=O)C4OC(C)(C)OC34)nn2)n(C)c1=O (stereo not drawn)	2.14 µM
C#CCCCOC(=O)Cn1cnc2c1c(=O)n(C)c(=O)n2C	162 µM
Cn1c(=O)c2c(ncn2CC(=O)OCc2cn(CC3OC(n4ccc(=O)[nH]c4=O)C4OC(C)(C)OC34)nn2)n(C)c1=O (stereo not drawn)	23.6 µM
Cn1c(=O)c2c(ncn2Cc2cn(CC3OC(n4ccc(=O)[nH]c4=O)C4OC(C)(C)OC34)nn2)n(C)c1=O (stereo not drawn)	10.4 µM
C#CCn1cnc2c1c(=O)n(C)c(=O)n2C	103 µM
CCn1c(=O)ccn(C2OC(Cn3cc(COC(=O)C(C)n4cnc5c4c(=O)n(C)c(=O)n5C)nn3)C(O)C2O)c1=O (stereo not drawn)	2.13 µM
CCn1c(=O)ccn(C2OC(Cn3cc(COC(=O)C(C)NC(=O)C(C)n4cnc5c4c(=O)n(C)c(=O)n5C)nn3)C(O)C2O)c1=O (stereo not drawn)	3.8 µM
Cn1c(=O)c2c(ncn2CCCc2cn(CC3OC(n4ccc(=O)[nH]c4=O)C4OC(C)(C)OC34)nn2)n(C)c1=O (stereo not drawn)	34.2 µM
C#CCOC(=O)Cn1cnc2c1c(=O)n(C)c(=O)n2C	33.9 µM
C#CCCOC(=O)Cn1cnc2c1c(=O)n(C)c(=O)n2C	56.3 µM

Tested on: not listed separately
Assay: Cytotoxicity against human HT-29 cells after 48 hrs by MTT assay
Type: functional, cell-based
Details: HT-29, 48 h

SMILES	IC50
Cn1c(=O)c2c(ncn2CC(=O)NCc2cn(CC3OC(n4ccc(=O)[nH]c4=O)C4OC(C)(C)OC34)nn2)n(C)c1=O (stereo not drawn)	58.2 µM
C#CCCCOC(=O)Cn1cnc2c1c(=O)n(C)c(=O)n2C	36.6 µM
Cn1c(=O)c2c(ncn2CC(=O)OCc2cn(CC3OC(n4ccc(=O)[nH]c4=O)C4OC(C)(C)OC34)nn2)n(C)c1=O (stereo not drawn)	6.2 µM
Cn1c(=O)c2c(ncn2Cc2cn(CC3OC(n4ccc(=O)[nH]c4=O)C4OC(C)(C)OC34)nn2)n(C)c1=O (stereo not drawn)	58.2 µM
C#CCn1cnc2c1c(=O)n(C)c(=O)n2C	158 µM
CCn1c(=O)ccn(C2OC(Cn3cc(COC(=O)C(C)n4cnc5c4c(=O)n(C)c(=O)n5C)nn3)C(O)C2O)c1=O (stereo not drawn)	62.8 µM
CCn1c(=O)ccn(C2OC(Cn3cc(COC(=O)C(C)NC(=O)C(C)n4cnc5c4c(=O)n(C)c(=O)n5C)nn3)C(O)C2O)c1=O (stereo not drawn)	2.71 µM
Cn1c(=O)c2c(ncn2CCCc2cn(CC3OC(n4ccc(=O)[nH]c4=O)C4OC(C)(C)OC34)nn2)n(C)c1=O (stereo not drawn)	7.45 µM
C#CCOC(=O)Cn1cnc2c1c(=O)n(C)c(=O)n2C	68.3 µM
C#CCCOC(=O)Cn1cnc2c1c(=O)n(C)c(=O)n2C	152 µM

Tested on: Bacillus cereus
Assay: Antimicrobial activity against Bacillus cereus ATCC 10876 incubated overnight by two-fold serial dilution method
Type: functional
Details: not given

SMILES	MIC
Cn1c(=O)c2c(ncn2CC(=O)NCc2cn(CC3OC(n4ccc(=O)[nH]c4=O)C4OC(C)(C)OC34)nn2)n(C)c1=O (stereo not drawn)	0.125 µg/mL (≈ 0.214 µM)
C#CCCCOC(=O)Cn1cnc2c1c(=O)n(C)c(=O)n2C	0.0625 µg/mL (≈ 0.205 µM)
Cn1c(=O)c2c(ncn2CC(=O)OCc2cn(CC3OC(n4ccc(=O)[nH]c4=O)C4OC(C)(C)OC34)nn2)n(C)c1=O (stereo not drawn)	0.125 µg/mL (≈ 0.213 µM)
Cn1c(=O)c2c(ncn2Cc2cn(CC3OC(n4ccc(=O)[nH]c4=O)C4OC(C)(C)OC34)nn2)n(C)c1=O (stereo not drawn)	0.0312 µg/mL (≈ 0.0592 µM)
O=C(O)c1cn(C2CC2)c2cc(N3CCNCC3)c(F)cc2c1=O [CIPROFLOXACIN]	0.0156 µg/mL (≈ 0.0471 µM)
C#CCn1cnc2c1c(=O)n(C)c(=O)n2C	0.125 µg/mL (≈ 0.573 µM)
CCn1c(=O)ccn(C2OC(Cn3cc(COC(=O)C(C)n4cnc5c4c(=O)n(C)c(=O)n5C)nn3)C(O)C2O)c1=O (stereo not drawn)	0.0625 µg/mL (≈ 0.106 µM)
CCn1c(=O)ccn(C2OC(Cn3cc(COC(=O)C(C)NC(=O)C(C)n4cnc5c4c(=O)n(C)c(=O)n5C)nn3)C(O)C2O)c1=O (stereo not drawn)	0.0312 µg/mL (≈ 0.0474 µM)
Cn1c(=O)c2c(ncn2CCCc2cn(CC3OC(n4ccc(=O)[nH]c4=O)C4OC(C)(C)OC34)nn2)n(C)c1=O (stereo not drawn)	0.0156 µg/mL (≈ 0.0281 µM)
C#CCOC(=O)Cn1cnc2c1c(=O)n(C)c(=O)n2C	0.125 µg/mL (≈ 0.452 µM)
C#CCCOC(=O)Cn1cnc2c1c(=O)n(C)c(=O)n2C	0.125 µg/mL (≈ 0.431 µM)
